Experimental data published in patent publication US20050153937A1, “Desensitization of compliment activation using monocyte/macrophage inhibitory compounds” (priority 2003, published 2005).

Test system: complement activation-related acute hypersensitivity (CARPA)
Conditions: pig, in vivo
Text: Adolescent (2040 kg) Yorkshire pigs of both genders are sedated with i.m. ketamine (Ketalar) and then anesthetized with halothane or isoflurane via nose cone. The trachea is intubated to allow mechanical ventilation with an anesthesia machine, using 1-2.5% halothane or isoflurane. A pulmonary artery catheter equipped with thermodilution-based continuous cardiac output detector is advanced via the right internal jugular vein through the right atrium into the pulmonary artery to measure pulmonary arterial pressure (PAP) and cardiac output (CO). Another catheter is inserted into the right femoral artery and advanced into the proximal aorta for blood sampling and to measure systemic arterial pressure (SAP). Blood pressure values and 2-3 leads of the electrocardiogram (ECG) are obtained continually.
The CARPA-activating compounds used in the following experiments are i) Doxil containing 2 mg/ml doxorubicin HCl and 16 mg/ml lipid (phospholipid concentration: 13.3 mM, 150 μg doxorubicin/μmol phospholipid), ii) multilamellar vesicles (MLV) consisting of dimyristoyl phosphatidylcholine (DMPC), dimyristoyl phosphatidylglycerol (DMPG), and cholesterol at a 45:5:50 ratio, and iii) zymosan. […]

Substance: Zymosan
- reactions to second series of CARPA-activator injections compared with first administration: substantially identical
- time until all physiologic and blood measures return to baseline after injection (iv): ≤ 30 min
